From publication PMC6892255, “Identification of a potent small-molecule inhibitor of bacterial DNA repair that potentiates quinolone antibiotic activity in methicillin-resistant Staphylococcus aureus^” (Bioorganic & Medicinal Chemistry, 2019) come the findings set out here.

Structures are written as SMILES.

One assay concerns E. coli K-12 BW25113. Kind of assay: MIC / growth inhibition assay (end-point OD600), single agent. Particulars: Escherichia coli, BW25113, end-point OD600 after 18 h, read-out: EC50 E. coli (K12 BW25113) Compound only. The format is cell-based, Escherichia coli. An excerpt:
(§1) Minimum inhibitory concentration (MIC) assays were used to evaluate the antimicrobial activity of compounds against Gram-negative (E. coli) and Gram-positive (S. aureus) bacteria. […] Gram-positive bacteria are more susceptible to small-molecule penetration, and compounds were therefore assessed for growth inhibition against the S. aureus SH1000 strain.
(§2) 2.1. Biological and biochemical methods
(§3) Bacterial strains and culture conditions
(§4) Strains utilized in the present study are detailed in Table S1. All strains used were cultivated on Mueller Hinton Agar (MHA) and grown to stationary-phase in Mueller Hinton Broth (MHB) at 37 °C for 16 h, with shaking at 180 r.p.m.
(§5) Minimum inhibitory concentration (MIC) assays
(§6) MIC assays were performed in 96 well plates and MICs were determined in accordance with the broth microdilution protocol.4 Strains grown to stationary-phase in MHB were adjusted to 5 x 10^5 colony-forming units (CFU)/mL in fresh MHB (100 µL/well) supplemented with DMSO to ensure a constant concentration of 0.5% (v/v) DMSO across all experiments. Where […]
(§7) or H2O2 (200 μM). Test compounds were prepared as two-fold serial dilutions. Cells were […]
(§8) as the lowest concentration with no visible bacterial growth, and the optical density at 600 nm (OD600) was recorded. OD600 measurements were background corrected against no-inocula control and normalized to DMSO control for dose-response analysis. The EC50 value mean and SEM were calculated from individual EC50 values from three biological replicates. […]

The subject of another assay is S. aureus SH1000. The description is as above. The format is cell-based. The following applies: Staphylococcus aureus, SH1000, 18 h, end-point OD600 after 18 h, read-out: EC50 S. aureus (SH1000) Compound only.
Excerpt: as §1, §2, §3, §4, §5, §6, §7, §8

The subject of assay [1] is methicillin-resistant S. aureus (MRSA, USA300 JE2). Described as above. The format is cell-based, Staphylococcus aureus.
Excerpt: as §1
Methicillin-resistant S. aureus (MRSA) is a multi-drug resistant bacterium responsible for a large number of nosocomial infections.[34] The emergence of community associated (CA)-MRSA capable of infection of healthy individuals highlights its significance and clinical relevance.[35]
as §2, §3, §4, §5, §6, §7, §8

Assay [2] shares this test system. The experiment in a line: Ciprofloxacin (CFX) potentiation in MRSA growth inhibition assay. The following applies: for EC50: read-out: EC50 S. aureus (USA300 JE2) Compound + CFX (9.4 μM), in presence of half-MIC CFX (9.4 μM); for fold increase in potency of para- over meta-substituted analogue, potentiation by CFX: JE2 + CFX, 4 vs 1, 10 vs 7, 14 vs 13. It counts as cell-based, Staphylococcus aureus. How it is done: as §2, §3, §4, §5, §6, §7, §8

In assay [3] the test system is MRSA (USA300 JE2). The experiment in a line: Growth inhibition in the presence of mitomycin-C. It counts as cell-based, Staphylococcus aureus. The following applies: read-out: EC50 Compound + MMC (0.40 µM); MRSA USA300 JE2, mitomycin-C 0.40 µM. As for the experimental part:
(§9) The analogue panel was further tested for potentiation of alternative DNA-damaging agents Mitomycin-C (MMC) and hydrogen peroxide (Table S2), which function via alkylation and oxidization DNA bases, respectively.
as §2, §3, §4, §5, §6, §7, §8

For assay [4], the system named is MRSA (USA300 JE2). Kind of assay: Growth inhibition in the presence of H2O2. Particulars: read-out: EC50 Compound + H2O2 (200 µM); MRSA USA300 JE2, H2O2 200 µM. The format is cell-based, Staphylococcus aureus. How it is done: as §9, §2, §3, §4, §5, §6, §7, §8
[5] abbreviates: Staphylococcus aureus, 18 h, read-out: EC50 S. aureus (USA300 JE2) Compound only, single agent, end-point OD600 after 18 h.

For `CCn1cc(C(=O)O)c(=O)c2cnc(N3CCN(C(=S)Nc4cccc(F)c4)CC3)nc21` [Compound 2], the EC50 – broadly, the concentration giving half of the maximal effect – was more than 100000 nM in the assay with E. coli K-12 BW25113; 6900 ± 400 nM in the assay on S. aureus SH1000; 27000 ± 400 nM in assay [1] (setting [5]); 730 ± 120 nM in assay [2]; 21000 ± 2200 nM in the assay on MRSA (USA300 JE2) [3]; 24000 ± 3000 nM with MRSA (USA300 JE2) [4].

On to `CCn1cc(C(=O)O)c(=O)c2cnc(N3CCN(C(=S)Nc4cc(C(F)(F)F)cc(C(F)(F)F)c4)CC3)nc21` [Compound 3], for which the EC50 in the assay on E. coli K-12 BW25113 is more than 100000 nM; with S. aureus SH1000, 3600 ± 400 nM; in assay [1] (setting [5]), 2700 ± 600 nM; in assay [2] it was 620 ± 90 nM; in the assay with MRSA (USA300 JE2) [3], 1500 ± 100 nM; with MRSA (USA300 JE2) [4] it was 2400 ± 200 nM.

`CCn1cc(C(=O)O)c(=O)c2cnc(N3CCN(C(=S)Nc4ccc(C(F)(F)F)cc4)CC3)nc21` [Compound 4]: the EC50 was more than 100000 nM in the assay on E. coli K-12 BW25113; 5200 ± 1100 nM in the assay on S. aureus SH1000; 4000 ± 300 nM in assay [1] (setting [5]); 240 ± 30 nM in assay [2]; 2900 ± 200 nM in the assay on MRSA (USA300 JE2) [3]; 4700 ± 900 nM in the assay on MRSA (USA300 JE2) [4]. Also, the “fold increase in potency of para- over meta-substituted analogue, potentiation by CFX” value in assay [2] was approximately 5 fold.

For `CCn1cc(C(=O)O)c(=O)c2cnc(N3CCN(C(=S)Nc4cc(Cl)cc(Cl)c4)CC3)nc21` [Compound 6], the EC50 in the assay with E. coli K-12 BW25113 was more than 100000 nM; in the assay with S. aureus SH1000, 2300 ± 300 nM; in assay [1] (setting [5]), 1800 ± 100 nM; in assay [2], 120 ± 40 nM; with MRSA (USA300 JE2) [3], 1500 nM; in the assay with MRSA (USA300 JE2) [4] it was 2500 ± 400 nM.

With `O=C(O)c1cn(C2CC2)c2cc(N3CCN(C(=S)Nc4cccc([N+](=O)[O-])c4)CC3)c(F)cc2c1=O` [Compound 13], the 50% effective concentration (EC50) in the assay with E. coli K-12 BW25113 is 270 ± 20 nM; in the assay on S. aureus SH1000, 110 ± 30 nM; in assay [1] (setting [5]), more than 25000 nM; in assay [2], 430 ± 90 nM.

Take `O=C(O)c1cn(C2CC2)c2cc(N3CCN(C(=S)Nc4ccc([N+](=O)[O-])cc4)CC3)c(F)cc2c1=O` [Compound 14]: the concentration for a half-maximal effect (EC50) in the assay on E. coli K-12 BW25113 is 260 ± 40 nM; in the assay with S. aureus SH1000 it was 50 ± 8 nM; in assay [1] (setting [5]) it was more than 12500 nM; in assay [2], 49 ± 6 nM. The “fold increase in potency of para- over meta-substituted analogue, potentiation by CFX” value in assay [2] was approximately 10 fold.

On to `CC1CN(c2cc3c(cc2F)c(=O)c(C(=O)O)cn3C2CC2)CCN1C(=S)Nc1ccc(C(F)(F)F)cc1` (stereo not drawn) [Compound 16], for which the EC50 in the assay on E. coli K-12 BW25113 came out at 300 ± 60 nM; in the assay on S. aureus SH1000, 260 ± 40 nM; in assay [1] (setting [5]) it was 3900 ± 400 nM; in assay [2] it was 18 ± 3 nM.

As to `O=C(O)c1cn(C2CC2)c2cc(N3CCC(NC(=S)Nc4ccc(C(F)(F)F)cc4)C3)c(F)cc2c1=O` (stereo not drawn) [Compound 17], the EC50 with E. coli K-12 BW25113 stood at 2800 ± 400 nM; with S. aureus SH1000, 1600 ± 400 nM; in assay [1] (setting [5]) it was 53000 ± 13000 nM; in assay [2] it was 3200 ± 300 nM.

In the case of `O=C(O)c1cn(C2CC2)c2cc(NCCNC(=S)Nc3ccc(C(F)(F)F)cc3)c(F)cc2c1=O` [Compound 18], the concentration for a half-maximal effect (EC50) in the assay on E. coli K-12 BW25113 was more than 100000 nM; in the assay with S. aureus SH1000, 7700 ± 1200 nM; in assay [1] (setting [5]) it was 9700 ± 1000 nM; in assay [2] it was 2500 ± 300 nM.

On to `CC(C)(C)OC(=O)NCCNC(=O)c1cn(C2CC2)c2cc(N3CCN(C(=S)Nc4ccc(C(F)(F)F)cc4)CC3)c(F)cc2c1=O` [Compound 19], for which the 50% effective concentration (EC50) (with E. coli K-12 BW25113; in the assay with S. aureus SH1000; in assay [1] (setting [5])) was more than 100000 nM in each case.

As for `NCCNC(=O)c1cn(C2CC2)c2cc(N3CCN(C(=S)Nc4ccc(C(F)(F)F)cc4)CC3)c(F)cc2c1=O` [Compound 20], the figures for the concentration for a half-maximal effect (EC50) (with E. coli K-12 BW25113; in the assay with S. aureus SH1000; in assay [1] (setting [5])) were 47000 ± 1000 nM, 76000 ± 5000 nM and 78000 ± 8000 nM, respectively.

With `OO` [Compound H2O2, hydrogen peroxide, reference compound], in assay [1] (single agent, end-point OD600 after 18 h, read-out: EC50 S. aureus (USA300 JE2) Compound only), the EC50 turned out to be 147000 ± 11000 nM.

For the compound `CO[C@@]12[C@H](COC(N)=O)C3=C(C(=O)C(C)=C(N)C3=O)N1C[C@@H]1N[C@@H]12` [MMC, Mitomycin-C, reference compound], the EC50 in assay [1] (setting [5]) stood at 330 ± 10 nM.
